Measurements taken from ChEMBL document CHEMBL1143263, “HY253, a novel compound isolated from Aralia continentalis, induces apoptosis via cytochrome c-mediated intrinsic pathway in HeLa cells” (Bioorg Med Chem Lett, 2009).
pIC50: −log10 of the molar value. Activity calls are given as the source filed them. The calls are words filed in the database; no cut-off is given here.

Experiments:
Assay type in all cases: functional, cell-based
[1] = tested on: HeLa; test: Induction of apoptosis in human HeLa cells assessed as cytochrome C release from mitochondria at 100 uM after 24 hrs by confocal microscopy
[2] = tested on: HeLa; test: Induction of apoptosis in human HeLa cells assessed as caspase-3 activation at 100 uM by Western blot
[3] = tested on: HeLa; test: Antiproliferative activity against human HeLa cells after 48 hrs by MTT assay
[4] = tested on: HeLa; test: Induction of apoptosis in human HeLa cells assessed as increase in pro-apoptotic Bax protein at 100 uM after 24 hrs by Western blot
[5] = tested on: HeLa; test: Induction of apoptosis in human HeLa cells assessed as increase in pro-apoptotic Bak protein at 100 uM after 24 hrs by Western blot
[6] = tested on: HeLa; test: Induction of apoptosis in human HeLa cells assessed as caspase-9 activation at 100 uM by Western blot
[7] = tested on: HeLa; test: Induction of apoptosis in human HeLa cells at 100 uM after 24 hrs by TUNEL assay
[8] = tested on: HeLa; test: Induction of apoptosis in human HeLa cells at 100 uM after 48 hrs by TUNEL assay
[9] = tested on: HeLa; test: Induction of apoptosis in human HeLa cells assessed as PARP cleavage at 100 uM by Western blot
[10] = tested on: HeLa; test: Induction of apoptosis in human HeLa cells assessed as fragmented apoptotic bodies at 100 uM after 24 hrs by DAPI staining
[11] = tested on: HeLa; test: Induction of apoptosis in human HeLa cells assessed as caspase-8 activation at 100 uM by Western blot

For `C=CC1CCC2(O)C(C=C)(C1)CC1(O)CC(O)C=CC12O` (configuration not stated), the Activity [1] was “Active”, the Activity [2] was “Active” and the Activity [3] was “Dose-dependent effect”. For the same molecule, the pIC50 [3] was 4.09, the Activity [4] was “Active” and the Activity [5] was “Active”. For the same molecule, the Activity [6] was “Active”, the Activity [7] was “Active” and the Activity [8] was “Active”. For the same molecule, the Activity [9] was “Active”, the Activity [10] was “Active” and the Activity [11] was “Active”.
